{"source": "paper PMC7463712", "about": "“Cholesterol as an Endogenous Ligand of ERRα Promotes ERRα-Mediated Cellular Proliferation and Metabolic Target Gene Expression in Breast Cancer Cells” (Cells, 2020)", "molecular_target": "T1, estrogen-related receptor alpha (ERRα; NR3B1) (Homo sapiens, UniProt P11474)", "T1 construct": "gene ESRRA", "T1 sequence (P11474 193-423 limits assumed)": "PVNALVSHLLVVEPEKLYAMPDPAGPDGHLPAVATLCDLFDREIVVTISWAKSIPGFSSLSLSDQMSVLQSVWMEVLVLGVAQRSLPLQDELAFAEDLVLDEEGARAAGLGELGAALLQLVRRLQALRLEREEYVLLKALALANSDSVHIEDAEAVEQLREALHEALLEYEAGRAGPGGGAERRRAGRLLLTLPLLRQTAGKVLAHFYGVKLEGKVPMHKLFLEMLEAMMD", "assay": "tryptophan fluorescence quenching; GST pull-down with LC-MS/MS", "format": "binding", "data": [{"smiles": "CC(C)CCC[C@@H](C)[C@H]1CC[C@H]2[C@@H]3CC=C4C[C@@H](O)CC[C@]4(C)[C@H]3CC[C@]12C", "note": "[cholesterol]", "values": [{"measurement": "Kd", "result": 213, "unit": "nM"}]}]}
